Residues, ends and D or L forms follow the SMILES beside them.
Tests used:
Format in all cases: cell-based, human
Snail-2 mRNA = experiment: Real time RT-PCR, Snail-2 mRNA expression
Description: (§1) The real-time reverse transcription polymerase chain reaction (RT-PCR) uses fluorescent reporter molecules to monitor the production of amplification products during each cycle of the PCR reaction. This combines the nucleic acid amplification and detection steps into one homogeneous assay and use of appropriate chemistries and data analysis eliminates the need for Southern blotting or DNA sequencing for amplicon identification. Its simplicity, specificity and sensitivity, together with its potential for high throughput and the ongoing introduction of new chemistries, more reliable instrumentation and improved protocols, has made real-time RT-PCR the benchmark technology for the detection and/or comparison of RNA levels.’
(§2) In order to detect and quantify the expression of specific genes at mRNA level, real-time reverse transcriptase polymerase chain reaction (Real time RT-PCR) was performed. Total RNA of samples was isolated and purified using the PureLink® RNA Mini Kit (Life technologies). The concentration of total RNA was detected by NanoDrop 2000 Spectrophotometer (Thermo Scientific). The total RNA (2000 ng) was reverse transcribed using the High-Capacity cDNA Reverse Transcription Kit (Applied Biosystems™).
(§3) The primers of target genes were TaqMan™ Gene Expression Assay for human PLAU (Hs01547054_m1), MMP-2 (Hs01548727_m1), MMP-9 (Hs00957562_m1), Snail-1 (Hs00195591_m1), Snail-2 (Hs00161904_m1), N-cadherin (Hs00983056_m1) and Twist (Hs01675818_s1). Relative quantification was done by reference to 18S ribosomal RNA (18S rRNA) and analysed using the comparative critical threshold (Ct) method
(§4) The mRNA expression of MMPs was measured using qRT-PCR. This was tested three independent times; the results are shown in Tables 9, 10 and 11 for U251, U87 cells and O81024 cells respectively. Results are reported as percent of the control cells (no treatment). Both MMP-2 and uPA were decreased in U251 by SEQ ID NO.1.
Epithelial-mesenchymal transition (EMT) is the process by which epithelial cells acquire a migratory (metastatic) phenotype and so EMT is associated with cancer metastasis, cancer cell stemness, chemoresistance and immune resistance. Therefore, the determination of the mRNA expression of EMT markers is a valuable tool to evaluate invasion potential of cancer cells.
The ‘Snail’ superfamily is involved in cell differentiation and survival, two processes central in cancer research. Snail-1 has a pivotal role in the regulation of epithelial-mesenchymal transition (EMT) and Snail-1 expression is associated with poor prognosis in metastatic cancer, and tumours with elevated Snail-1 expression are harder to treat. […]

Twist mRNA = experiment: Real time RT-PCR, Twist mRNA expression
Description: as §1, §2, §3
as §4, with “NO.1. […]” for “NO.1.”

MMP-9 mRNA = experiment: Real time RT-PCR, MMP-9 mRNA expression
Description: as §1, §2, §3, §4

U251 cells = experiment: BME cell invasion assay, U251; conditions: 24 h
Method: To assess whether the ability of SEQ ID NO.1 to inhibit MMP-2 activity and, to a lesser extent, reduce the production of matrix proteinases and downregulate the expression of EMT markers, was of functional consequence in reducing the invasiveness of the GBM cells, the ability of the peptide was tested at the concentrations of 1, 10 and 100 μM (none of which are toxic to cells) to inhibit invasion of the GBM cells through a basement membrane. This assay, described in more detail below, is an in vitro surrogate for measurement of the in vivo invasion by tumour cells of their environment.
The cell invasion assay employs a simplified Boyden chamber-like design that consists of two chambers separated by a filter (an 8 μm polycarbonate (PC) membrane) coated with basement membrane or different extracellular matrix components. The cell suspension is placed in the top chamber and incubated in the presence of test media containing specific chemo-attractants in the bottom chamber. Cells migrate from the top chamber to the bottom of the filter by degrading the coating over the filter pores. Detection of cell invasion is quantified using Calcein AM. Cell dissociation/Calcein AM solution is placed in the bottom chamber to dissociate the migrating cells from the filter. Calcein AM is internalized by the cells, and intracellular-esterases cleave the aceto-methylester (AM) moiety. Free Calcein fluoresces brightly and is used to quantitate the number of cells that have invaded or migrated by comparison with a standard curve (In Vitro Technologies Pty Ltd, (https://lifescience.invitro.com.au/brands/r-and-d-systems/).
The filter was coated with PathClear® growth factor reduced BME. The selected peptides were applied to the cells in both upper and lower wells to make sure the concentration of peptides were the same and the chemoattractant was serum at a concentration of 2% (for adherent U87 & U251 cells) or growth factor mix required in the medium (for non- adherent, 081024 oncospheres).
Cell invasion was determined using CultureCoat® 96 Well Medium BME Cell Invasion assay. Briefly, the cells were pre-starved 24 h before harvest. Then seeding 25,000 per well of cell in the upper chamber with serum free medium together different concentration of peptide. The bottom chamber also added different concentration of peptides with 2% (V/V) serum for GBM adherent cells or growth factor mix for neurosphere cells as chemoattractant. After 24 h incubation, the invading cells were measured by Calcein AM and calculated based on standard curve.
The results are shown in Table 12, the results are expressed as % inhibition.

[1] = 081024 cells, baseline expression level = 1
[2] = U87 cells, baseline expression level = 1
[3] = U251 cells, relative to control (no treatment)

Compound: CC(C)C[C@@H]1NC(=O)[C@H](C)NC(=O)[C@@H](NC(=O)[C@@H]2CCCN2C(=O)[C@@H](N)CC(C)C)CSSC(C)(C)CNC(=O)CC[C@@H](C(=O)N[C@@H](CCCNC(=N)N)C(N)=O)NC(=O)[C@H](CC(=O)O)NC(=O)[C@H](CC(N)=O)NC1=O [SEQ ID NO: 1, Leu-Pro-c(SSA*-Ala-Leu-Asn-Asp-Glu)-Arg-NH2] (HELM PEPTIDE1{L.P.C.A.L.N.D.E.R.[am]}|CHEM1{[CC(C)(CN[*:2])S[*:1]]}$PEPTIDE1,CHEM1,3:R3-1:R1|PEPTIDE1,CHEM1,8:R3-1:R2$$$V2.0; N-terminus assumed)
- mRNA expression, Snail-2 (Snail-2 mRNA; [1]): 1.01
- mRNA expression, Snail-2 (Snail-2 mRNA; [2]): 0.94
- mRNA expression, Snail-2 (Snail-2 mRNA; [3]): 0.75
- mRNA expression, Snail-2 (in words) (Snail-2 mRNA; cell line not specified): non-statistical decrease in expression
- mRNA expression, Twist (Twist mRNA; [1]): 0.94
- mRNA expression, Twist (Twist mRNA; [2]): 0.79
- mRNA expression, Twist (Twist mRNA; [3]): 0.91
- mRNA expression, MMP-9 (MMP-9 mRNA; [1]): 0.63
- mRNA expression, MMP-9 (MMP-9 mRNA; [2]): 0.66
- mRNA expression, MMP-9 (MMP-9 mRNA; [3]): 0.73
- Invasion Inhibition Index (%) (U251 cells; 1 μM): 13.2%
- Invasion Inhibition Index (%) (U251 cells; 10 μM): 17.8%
- Invasion Inhibition Index (%) (U251 cells; 100 μM): 26.7%
